Experimental data: patent publication US8569378B2, “p27 protein inducer” (Chugai Seiyaku Kabushiki Kaisha, priority 2007, dated 2013)

Tested on: p27 protein
Experiment: Quantification of p27 protein by ELISA (p27 protein-inducing activity, EC50)
Assay type: cell-based, human
Conditions: NCI-H460 cells, 48 hours, p27 sandwich ELISA
Protocol: The p27 protein-inducing activities of the compounds or salts listed in Tables 1-1, 1-2 and 2 below were measured as follows.
Preparation of Cell Lysate:
NCI-H460 human non-small cell lung cancer cells (ATCC HTB-177) were plated in 6-well plates at 2×10^5 cells/well and incubated overnight. Then, the test substance was added to the medium to a final concentration of 10000 nmol/L, 3000 nmol/L, 100 nmol/L, 30 nmol/L, 10 nmol/L, 3 nmol/L, 1 nmol/L, 0.3 nmol/L, 0.1 nmol/L, 0.03 nmol/L or 0.01 nmol/L and the cells were incubated at 37° C. in 5% CO2 for 48 hours. 150 μL of Cell Lysis Buffer (catalog no. 9803, Cell Signaling) which had been diluted to 1-fold concentration (1 mM PMSF was added immediately before use) was added, and the mixture was allowed to stand on ice for 10 minutes. The Cell Lysis Buffer in which cells were lysed was collected together with cells with a scraper and transferred to a new tube. It was centrifuged at 15000 rpm for 10 minutes at 4° C. and the supernatant was then transferred to a new tube.
Quantification by Sandwich ELISA:
Anti-p27 monoclonal antibody (catalog no. 71-9600, Zymed) was diluted to 5 μg/mL in 50 mM carbonate coating buffer (0.4 g/L NaCO3, 0.73 g/L NaHCO3 and 0.04 g/L NaN3 in distilled water), and it was then added at 50 μL/well and allowed to stand overnight at 4° C. to bind the antibody. After washing three times with PBS, 200 μL of blocking solution (0.2% I-Block in PBS) was added to each well. After 1 hour of incubation at room temperature, washing with PBS-T (0.05% Tween 20 in PBS) was performed three times. The sample and recombinant p27 protein standard were serially diluted in Cell Lysis Buffer (catalog no. 9803, Cell Signaling) which had been diluted to 1-fold concentration (1 mM PMSF was added immediately before use), and it was then added at 100 μL/well. After 1 hour of incubation at room temperature, washing with 200 μL of PBS-T was performed three times. HRP-labeled anti-p27 antibody (product no. 610243, BD Transdution Laboratories) was diluted 1:2500 (i.e. to 0.1 μg/mL) in 0.2% I-Block/0.05% PBS-T, and it was then added at 100 μL/well. After 1 hour of incubation at room temperature, washing with 200 μL of PBS-T was performed three times. Chromogenic substrate solution (TMB One Solution, catalog no. G7431, Promega) was added at 100 μL/well and allowed to develop a color reaction at room temperature. After stopping the reaction with 50 μL of 1N H2SO4, the absorbance at 450 nm was measured.
Calculation of EC50 Values:
A standard response curve was generated by plotting the amount of p27 protein against the concentration of the test substance. The basal level of response was defined as 0%, while the plateau level where the induction of p27 protein had been maximized was defined as 100%. Finally, the test substance concentration at which 50% induction was achieved was calculated, and it was defined as EC50.

| EC50 (Table 1-2) [nM] | Compound | EC50 (Table 1-1) [nM] | also measured |
| --- | --- | --- | --- |
| – | CNS(=O)(=O)Nc1cccc(Cc2c(CF)c3cc(Cl)c(OC(=O)N(C)C)cc3oc2=O)c1 [Compound 1j-1-3-2F, Dimethylcarbamic acid 6-chloro-4-fluoromethyl-3-{3-(methylaminosulfonyl)aminobenzyl}-2-oxo-2H-1-benzopyran-7-yl ester] | 31 | – |
| – | Cc1c(Cc2cccc(NS(=O)(=O)N(C)C)c2)c(=O)oc2cc(OC(=O)N(C)C)c(Cl)cc12 [Compound 1j-1-3-3, Dimethylcarbamic acid 6-chloro-4-methyl-3-{3-(dimethylaminosulfonyl)aminobenzyl}-2-oxo-2H-1-benzopyran-7-yl ester] | 74 | – |
| – | Cc1c(Cc2cccc(NS(N)(=O)=O)c2F)c(=O)oc2cc(OC(=O)N(C)C)ccc12 [Compound 1j-1-4-1, Dimethylcarbamic acid 3-(3-aminosulfonylamino-2-fluoro-benzyl)-4-methyl-2-oxo-2H-1-benzopyran-7-yl ester] | 180 | – |
| – | CNS(=O)(=O)Nc1cccc(Cc2c(C)c3ccc(OC(=O)N(C)C)cc3oc2=O)c1F [Compound 1j-1-4-2, Dimethylcarbamic acid 3-(3-methylaminosulfonylamino-2-fluoro-benzyl)-4-methyl-2-oxo-2H-1-benzopyran-7-yl ester] | 78 | – |
| – | CNS(=O)(=O)Nc1cccc(Cc2c(CF)c3ccc(OC(=O)N(C)C)cc3oc2=O)c1F [Compound 1j-1-4-2F, Dimethylcarbamic acid 3-(3-methylaminosulfonylamino-2-fluoro-benzyl)-4-fluoromethyl-2-oxo-2H-1-benzopyran-7-yl ester] | 60 | – |
| – | CNS(=O)(=O)Nc1cccc(Cc2c(C)c3cc(F)c(OC(=O)N(C)C)cc3oc2=O)c1F [Compound 1j-1-5-2, Dimethylcarbamic acid 6-fluoro-4-methyl-3-{2-fluoro-3-(methylaminosulfonyl)aminobenzyl}-2-oxo-2H-1-benzopyran-7-yl ester] | 210 | – |
| – | Cc1c(Cc2cccc(NS(N)(=O)=O)c2)c(=O)oc2cc(OC(=O)N(C)C)c(I)cc12 [Compound 1j-1-7-1, Dimethylcarbamic acid 3-{3-(aminosulfonyl)aminobenzyl}-6-iodo-4-methyl-2-oxo-2H-1-benzopyran-7-yl ester] | 160 | – |
| – | CNS(=O)(=O)Nc1cccc(Cc2c(C)c3cc(I)c(OC(=O)N(C)C)cc3oc2=O)c1 [Compound 1j-1-7-2, Dimethylcarbamic acid 6-iodo-4-methyl-3-{3-(methylaminosulfonyl)aminobenzyl}-2-oxo-2H-1-benzopyran-7-yl ester] | 27 | – |
| – | CNS(=O)(=O)Nc1cccc(Cc2c(C)c3cc(C)c(OC(=O)N(C)C)cc3oc2=O)c1 [Compound 1j-1-8-2, Dimethylcarbamic acid 6-methyl-4-methyl-3-{3-(methylaminosulfonyl)aminobenzyl}-2-oxo-2H-1-benzopyran-7-yl ester] | 240 | – |
| – | CNS(=O)(=O)Nc1cccc(Cc2c(C)c3cc(C#N)c(OC(=O)N(C)C)cc3oc2=O)c1 [Compound 1j-1-9-2, Dimethylcarbamic acid 6-cyano-4-methyl-3-{3-(methylaminosulfonyl)aminobenzyl}-2-oxo-2H-1-benzopyran-7-yl ester] | 4800 | – |
| – | CNS(=O)(=O)Nc1cccc(Cc2c(C)c3ccc(OC(=O)N(C)C)cc3oc2=O)n1 [Compound 1j-1-13-2, Dimethylcarbamic acid 4-methyl-3-{6-(methylaminosulfonyl)aminopyridin-2-ylmethyl}-2-oxo-2H-1-benzopyran-7-yl ester] | – | EC50 (Table 2): 2500 nM |
| – | Cc1c(Cc2cccc(NS(=O)(=O)NCCC#N)c2)c(=O)oc2cc(OC(=O)N(C)C)c(Cl)cc12 [Compound 1j-1-21-2, Dimethylcarbamic acid 3-(3-(N-(2-cyanoethyl)sulfamoyl)aminobenzyl)-6-chloro-4-methyl-2-oxo-2H-1-benzopyran-7-yl ester] | 150 | – |
| – | COCCNS(=O)(=O)Nc1cccc(Cc2c(C)c3cc(Cl)c(OC(=O)N(C)C)cc3oc2=O)c1 [Compound 1j-1-23-2, Dimethylcarbamic acid 3-(3-(N-(2-methoxyethyl)sulfamoyl)aminobenzyl)-6-chloro-4-methyl-2-oxo-2H-1-benzopyran-7-yl ester] | 220 | – |
| – | CNS(=O)(=O)Nc1cc(Cc2c(C)c3cc(Cl)c(Oc4ncccn4)cc3oc2=O)ccn1 [Compound 1j-2-12-2, 3-{2-(Methylaminosulfonyl)aminopyridin-4-ylmethyl}-4-methyl-7-(pyrimidin-2-yloxy)-6-chloro-2-oxo-2H-1-benzopyran] | – | EC50 (Table 2): 1450 nM |
| – | CNS(=O)(=O)Nc1nccc(Cc2c(C)c3ccc(Oc4ncccn4)cc3oc2=O)c1F [Compound 1j-2-16-2, 3-{2-(Methylaminosulfonyl)amino-3-fluoropyridin-4-ylmethyl}-4-methyl-7-(pyrimidin-2-yloxy)-2-oxo-2H-1-benzopyran] | – | EC50 (Table 2): 504 nM |
| 220 | CNS(=O)(=O)Nc1nccc(Cc2c(C)c3cc(F)c(Oc4ncccn4)cc3oc2=O)c1F [Compound 1j-2-17-2, 3-{2-(methylaminosulfonyl)amino-3-fluoropyridin-4-ylmethyl}-4-methyl-6-fluoro-7-(pyrimidin-2-yloxy)-2-oxo-2H-1-benzopyran] | – | – |
| 43 | CNS(=O)(=O)Nc1nccc(Cc2c(C)c3cc(Cl)c(Oc4ncccn4)cc3oc2=O)c1F [Compound 1j-2-18-2, 3-{2-(Methylaminosulfonyl)amino-3-fluoropyridin-4-ylmethyl}-4-methyl-6-chloro-7-(pyrimidin-2-yloxy)-2-oxo-2H-1-benzopyran] | – | – |
| 160 | CNS(=O)(=O)Nc1nccc(Cc2c(C)c3cc(C)c(Oc4ncccn4)cc3oc2=O)c1F [Compound 1j-2-19-2, 3-{2-(Methylaminosulfonyl)amino-3-fluoropyridin-4-ylmethyl}-4-methyl-6-methyl-7-(pyrimidin-2-yloxy)-2-oxo-2H-1-benzopyran] | – | – |
| 48 | CCc1c(Cc2ccnc(NS(=O)(=O)NC)c2F)c(=O)oc2cc(Oc3ncccn3)c(C)cc12 [Compound 1j-2-19-2Me, 3-{2-(Methylaminosulfonyl)amino-3-fluoropyridin-4-ylmethyl}-4-ethyl-6-methyl-7-(pyrimidin-2-yloxy)-2-oxo-2H-1-benzopyran] | – | – |
| – | CNS(=O)(=O)Nc1cccc(Cc2c(C)c3ccc(Oc4nccs4)cc3oc2=O)c1 [Compound 1j-3-1-2, 3-{3-(Methylaminosulfonyl)aminobenzyl}-4-methyl-7-(thiazol-2-yloxy)-2-oxo-2H-1-benzopyran] | – | EC50 (Table 2): 7100 nM |
| – | CNS(=O)(=O)Nc1cccc(Cc2c(C)c3cc(C)c(Oc4nccs4)cc3oc2=O)c1 [Compound 1j-3-8-2, 3-{3-(Methylaminosulfonyl)aminobenzyl}-4-methyl-7-(thiazol-2-yloxy)-6-methyl-2-oxo-2H-1-benzopyran] | – | EC50 (Table 2): 540 nM |
| 458 | CNS(=O)(=O)Nc1cc(Cc2c(C)c3cc(Cl)c(Oc4nccs4)cc3oc2=O)ccn1 [Compound 1j-3-12-2, 3-{2-(Methylaminosulfonyl)aminopyridin-4-ylmethyl}-4-methyl-6-chloro-7-(thiazol-2-yloxy)-2-oxo-2H-1-benzopyran] | – | – |
| 19 | CNS(=O)(=O)Nc1nccc(Cc2c(C)c3cc(C)c(Oc4nccs4)cc3oc2=O)c1F [Compound 1j-3-19-2, 3-{2-(Methylaminosulfonyl)amino-3-fluoropyridin-4-ylmethyl}-4-methyl-6-methyl-7-(thiazol-2-yloxy)-2-oxo-2H-1-benzopyran] | – | – |

| Compound | EC50 (Table 1-2) [nM] | EC50 (Table 1-1) [nM] | also measured |
| --- | --- | --- | --- |
| Cc1c(Cc2ccccc2)c(=O)oc2cc(OC(=O)N(C)C)c(Cl)cc12 [Comp. 2, dimethylcarbamic acid 2-oxo-2H-3-benzyl-4-methyl-6-chloro-1-benzopyran-7-yl ester, reference compound] | 5400 | – | – |
| CNS(=O)(=O)Nc1cc(Cc2c(C)c3cc(Cl)c(OC(=O)N(C)C)cc3oc2=O)ccn1 [Compound 1j-1-12-2, Dimethylcarbamic acid 4-methyl-3-{2-(methylaminosulfonyl)aminopyridin-4-ylmethyl}-6-chloro-2-oxo-2H-1-benzopyran-7-yl ester] | 1100 | – | – |
